According to patent publication US11873298B2, “Compounds and uses thereof” (JANSSEN PHARMACEUTICA NV, priority 2017, dated 2024):
Several values for one entry are separate records, joined by “and”; a condition that tells them apart may be missing. Equal entries are not always repeated.

Experiments:
Assay type in all cases: cell-based
Ole1 = biological target: T1, Ole1 (Saccharomyces cerevisiae, UniProt P21147); test: Growth inhibition of yeast strain expressing Ole1 as sole desaturase; settings: yeast strain expressing Ole1 as sole desaturase
T1 construct: expressed in transfected cells; host or cells: S. cerevisiae ole1Δ strain (W303 pdr1Δ pdr3Δ background), plasmid pRS316 with TDH3 promoter and CYC1 terminator
T1 sequence (P21147 1-510): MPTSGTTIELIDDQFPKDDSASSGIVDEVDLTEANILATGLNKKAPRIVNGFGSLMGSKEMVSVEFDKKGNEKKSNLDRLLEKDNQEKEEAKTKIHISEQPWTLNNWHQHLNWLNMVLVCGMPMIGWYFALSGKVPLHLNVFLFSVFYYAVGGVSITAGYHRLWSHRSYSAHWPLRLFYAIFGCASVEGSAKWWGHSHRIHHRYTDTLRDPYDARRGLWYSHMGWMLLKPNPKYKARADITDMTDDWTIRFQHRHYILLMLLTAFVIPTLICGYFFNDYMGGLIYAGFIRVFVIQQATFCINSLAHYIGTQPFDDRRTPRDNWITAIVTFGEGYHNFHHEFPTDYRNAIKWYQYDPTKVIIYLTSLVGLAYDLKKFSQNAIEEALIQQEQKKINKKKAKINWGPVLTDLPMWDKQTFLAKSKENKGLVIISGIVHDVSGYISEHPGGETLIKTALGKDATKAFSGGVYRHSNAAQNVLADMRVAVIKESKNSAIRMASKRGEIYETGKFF
Description: Strain oleΔ (yeast ole1 deletion mutant) was constructed by deleting OLE1 with NAT-MX6 in BY4741, amplifying the deletion cassette from the genomic DNA of the resulting strain with primers flanking the ORF by 1000 bp upstream and downstream, transforming the resulting deletion cassette into W303 pdr1Δ pdr3Δ, and plating transformants on YPD media containing G418 (200 μg/mL) and nourseothricin ([…]) with 0.01% TWEEN®-20 and 0.5 mM oleic and palmitoleic acids.
The coding sequence of yeast OLE1 was also cloned into this plasmid). These clones were then transformed into the ole1Δ strain and plated on CSM-Ura media (CSM lacking uracil) with 2% glucose (w/v) and independent colonies were isolated and amplified.
All compound profiling experiments were performed using the same basic protocol. Different genetic backgrounds (e.g., gene deletions) or conditions (e.g., addition of oleic and palmitoleic acid) were replaced as indicated below.
Yeast were cultured using standard techniques in complete synthetic media (CSM) and yeast nitrogen base supplemented with 2% (w/v) carbon source (glucose, raffinose, or galactose) to regulate the expression of the toxic disease protein. An initial starter culture was inoculated in 3 mL CSM-Glucose media and incubated overnight in a 30° C. shaker incubator (225 rpm). Saturated morning cultures were then diluted 1:20 in fresh CSM-Raffinose media and grown for 6 h to an OD600 (optical density) of ˜0.4-0.8 at 30° C. with shaking.
Compound administration was performed in two separate steps. First, 15 μL of CSM-Galactose (induces expression of toxic protein) was dispensed into clear 384 well assay plates using a MULTIDROP™ Combi reagent dispenser. […] The cultures described above were then diluted to a 2× concentration (0.03 and 0.08 for alpha-synuclein and ApoE, final ODsoo of 0.015 and 0.04) in CSM-Galactose. For wild-type and Ole1/SCD1/SCD5 plasmid-containing strains, the 2× cell density was 0.02. […] For 96-well assays (FIGS. 1A and 1B), compound dilutions in DMSO were generated in 96 well plates and 1 μL was manually pipetted into 96 well clear bottom assay plates.
For experiments using a plasmid-borne copy of Ole1, SCD1, or SCD5 (FIGS. 3B, 6, and 7), media lacking uracil (SX-Ura, where X is glucose, raffinose, or galactose), was used for all steps of the compound profiling protocol to ensure its maintenance throughout the assay.
After yeast delivery, assay plates were incubated under humidified conditions at 30° C. for 24 to 40 h. ApoE4 rescue experiments were stopped at 24 h, aSyn experiments at 40 h, Ole1 at 24 h, and SCD1/SCD5 at 40 h. The growth of yeast was monitored by reading the ODsoo of each well using a microplate reader (Perkin Elmer EnVision™).

SCD1 = biological target: T2, SCD1 (Homo sapiens, UniProt O00767); test: Growth inhibition of humanized yeast strain expressing SCD1 as sole desaturase; settings: humanized yeast strain expressing SCD1
T2 construct: host or cells: S. cerevisiae ole1Δ strain (W303 pdr1Δ pdr3Δ background), plasmid pRS316 with TDH3 promoter and CYC1 terminator
T2 sequence (O00767 1-359): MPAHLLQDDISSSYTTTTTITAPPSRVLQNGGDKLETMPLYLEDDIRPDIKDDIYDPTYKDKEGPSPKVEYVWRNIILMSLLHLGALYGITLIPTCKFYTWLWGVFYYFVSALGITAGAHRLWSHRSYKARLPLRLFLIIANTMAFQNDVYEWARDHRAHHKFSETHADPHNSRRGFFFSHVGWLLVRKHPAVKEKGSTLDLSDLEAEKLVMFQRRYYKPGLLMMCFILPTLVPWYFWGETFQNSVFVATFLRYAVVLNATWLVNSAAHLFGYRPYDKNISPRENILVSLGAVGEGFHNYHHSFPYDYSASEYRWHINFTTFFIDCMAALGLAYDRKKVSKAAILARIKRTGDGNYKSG
How it was run: (§1)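 Plasmid-complemented ole1Δ yeast, drug-pump deleted (pdr1Δ pdr3Δ), depend solely on the introduced Ole1, SCD1 or SCD5 desaturase. Compounds are added from DMSO to cells in uracil-free galactose medium, 2× density 0.02, and OD600 is read after 24 h or 40 h respectively.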

SCD5 = biological target: T3, SCD5 (Homo sapiens, UniProt Q86SK9); test: Growth inhibition of humanized yeast strain expressing SCD5 as sole desaturase; settings: humanized yeast strain expressing SCD5
T3 construct: host or cells: S. cerevisiae ole1Δ strain (W303 pdr1Δ pdr3Δ background), plasmid pRS316 with TDH3 promoter and CYC1 terminator
T3 sequence (Q86SK9 1-330): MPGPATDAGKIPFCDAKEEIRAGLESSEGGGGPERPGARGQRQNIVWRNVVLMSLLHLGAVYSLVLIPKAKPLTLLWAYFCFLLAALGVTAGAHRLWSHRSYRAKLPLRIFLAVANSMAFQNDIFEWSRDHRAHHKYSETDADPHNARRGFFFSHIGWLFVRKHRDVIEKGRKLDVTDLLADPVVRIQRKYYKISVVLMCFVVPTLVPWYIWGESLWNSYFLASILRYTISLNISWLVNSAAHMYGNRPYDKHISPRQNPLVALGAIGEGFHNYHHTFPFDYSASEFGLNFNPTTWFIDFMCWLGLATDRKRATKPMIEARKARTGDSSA
How it was run: as §1

| SMILES | IC50 (Ole1) [µM] | OLE1 % Max Inhibition (Ole1) | IC50 (SCD1) [µM] | SCD1 % Max Inhibition (SCD1) | IC50 (SCD5) [µM] | SCD5 % Max Inhibition (SCD5) |
| --- | --- | --- | --- | --- | --- | --- |
| N#Cc1cccc(N2CC(C(=O)N3CCC(c4nc(N5CC6(COC6)C5)no4)CC3)CC2=O)c1 (stereo not shown) [Compound 332] | > 45 | 77.0% | > 45 | 59.7% | > 45 | 31.5% |
| CCc1nn(C)c2cc(-c3noc(C4CCN(C(=O)CNC(=O)c5ccccc5)CC4)n3)ccc12 [Compound 309] | > 45 | 8.0% |  | 80.6% | > 45 | 14.7% |
| CC(C)n1ncc2ccc(-c3noc(C4CCN(C(=O)OC(C)(C)C)CC4)n3)cc21 [Compound 265] | > 45 | 103.04% and 83.99% | ≥ 45 | 76.74% and 54.38% | > 45 | 10.96% and 3.97% |
| Cc1nn(C)c2cc(-c3noc(C4CCN(C(=O)CNC(=O)c5ccc(C#N)cc5)CC4)n3)ccc12 [Compound 267] | > 45 | 4.64% | 37.8 | 58.58% | > 45 | 11.33% |
| COc1ccc(-c2nccc(C3CCN(C(=O)CNC(=O)c4ccccc4)CC3)n2)cc1OC [Compound 221] | > 45 | 113.54% | > 45 | 100.56% | > 45 | 93.18% |
| COc1ccc(-c2noc(C3CCNCC3)n2)cc1OC [Compound 488] | > 45 | 90.53% |  | 75.87% | > 45 | 72.82% |
| Cc1nn(C)c2cc(-c3noc(C4CCN(C(=O)Oc5ccccc5)CC4)n3)ccc12 [Compound 272] | > 45 | 40.3% |  | 70.8% | > 45 | 51.9% |
| COc1ccc(-c2noc(C3CCN(C(=O)CNC(=O)c4ccccc4)CC3)n2)cc1OC(C)C [Compound 274] | > 45 | 75.9% |  | 75.3% | > 45 | 67.0% |
| Cc1nn(C)c2cc(-c3noc(C4CCN(C(=O)c5cccc(F)c5)CC4)n3)ccc12 [Compound 284] | > 45 | 12.40% |  | 4.81% | > 45 | 6.80% |
| CCn1nc(C)c2ccc(-c3noc(C4CCN(C(=O)OC(C)(C)C)CC4)n3)cc21 [Compound 301] | > 45 | 99.4% |  | 96.2% | > 45 | 21.0% |
| Cc1nn(C)c2cc(-c3nc(C4CCN(C(=O)CNC(=O)c5ccccc5)CC4)no3)ccc12 [Compound 326] | > 45 | 7.5% |  | 77.1% | > 45 | 26.5% |
| Cn1ncc2ccc(NC(=O)C3CCN(C(=O)C4CC(=O)N(c5ccccc5)C4)CC3)cc21 (stereo not shown) [Compound 213] | > 45 | 94.72% | > 45 | 86.35% | > 45 | 85.33% |
| Cc1nn(C)c2cc(-c3noc(C4CCN(C(=O)CNC(=O)c5ccsn5)CC4)n3)ccc12 [Compound 226] | > 45 | 1.24% | > 45 | 33.20% | > 45 | 0.69% |
| Cc1c2ccc(-c3noc(C4CCN(C(=O)CNC(=O)c5ccccc5)CC4)n3)cc2nn1C(C)C [Compound 289] | > 45 | 45.87% |  | 62.01% | > 45 | 77.71% |
| Cc1nn(C)c2cc(-c3noc(C4CCN(S(=O)(=O)C(C)C)CC4)n3)ccc12 [Compound 279] | > 45 | 83.07% |  | 43.86% | > 45 | 21.97% |
| CC(C)n1cc2cc(-c3noc(C4CCN(C(=O)CNC(=O)c5ccccc5)CC4)n3)ccc2n1 [Compound 229] | > 45 | 89.56% | > 45 | 66.51% | > 45 | 71.18% |
| Cc1nn(C)c2ccc(-c3noc(C4CCN(C(=O)c5ccc(C(C)C)cc5)CC4)n3)cc12 [Compound 297] | 25.2 | 42.0% |  | 5.7% | > 45 | 9.2% |
| Cc1nn(C)c2cc(-c3noc(C4CCN(C(=O)[C@H](NC(=O)c5ccccc5)C5CC5)CC4)n3)ccc12 [Compound 191] | > 45 | 89.31% | > 45 | 81.79% | > 45 | 6.72% |
| Cc1nn(C)c2cc(-c3noc(C4CCN(C(=O)c5ccc(C(C)C)cc5)CC4)n3)ccc12 [Compound 290] | > 45 | 20.6% |  | 3.3% | > 45 | 8.8% |
| CCOC(=O)C(C)(C)n1cc2ccc(-c3noc(C4CCN(C(=O)CNC(=O)c5ccccc5)CC4)n3)cc2n1 [Compound 194] | > 45 | 60.71% | > 45 | 74.07% | > 45 | 63.24% |
| Cc1nn(C)c2cc(-c3noc(C4(C)CCN(C(=O)CNC(=O)c5ccccc5)CC4)n3)ccc12 [Compound 227] | > 45 | 1.24% | 38.3 | 63.76% | > 45 | 6.17% |
